Assay results from US8597904B2, “Pharmaceutical compositions for the treatment of conditions responsive to proteasome inhibition” (priority 2007, dated 2013).

Key:
SKOV3 cells = experiment: Cytox-Glo cytotoxicity assay; assay type: cell-based, human; settings: SKOV3, 1.0 μM GlbA or 25 μM SylA, 48 hours
Method: Determination of potential cytotoxic effects by GlbA and/or […] was carried out by using the Cytox-Glo cytotoxicity assay, which measures “dead cell proteases” from cells that have lost membrane integrity. Briefly, cells were treated with a single concentration of compound for 48 hours in a final volume of 100 μl, after which 50 μl of AAF-Glo luminogenic peptide substrate (alanyl-alanyl-phenylalanyl-aminoluciferin) was added to each well and incubated for 15 min at room temperature. The luminescence was measured by a Dynex MLX luminometer to give a reading of cells with damaged membranes. Next, 50 μl of digitonin was added to each well and the samples incubated for 15 minutes at room temperature. Luminescence was measured a second time to determine total cell number. Controls included cells with vehicle only, media, and media with compound.
SK-N-SH cells were treated with 0.25 μM GlbA or 25 μM SylA and SKOV3 cells were treated with 1.0 μM GlbA or 25 μM SylA. As illustrated in FIGS. 16A and 16B, control cells (treated with DMSO and H2O representing GlbA and SylA controls, respectively) were viable and no cytotoxicity was detected.

p53 = experiment: Western blot of total p53 protein levels in SK-N-SH cells; assay type: cell-based, human
Method: Because p53 is a key regulator and mediator of apoptosis, the total protein levels of p53 in the p53-wild type cell line SK-N-SH were measured after treatment of cells with syringolin A. As a control, the p53-deficient cell line SKOV3 was tested in parallel. Cells at a concentration of 1.0×10^5 cells per ml were first seeded in six-well plates containing 2 ml of culture medium per well. […] Cells were incubated for 0, 24, and 48 hours, harvested, and lysed in radioimmuno-precipitation assay (RIPA) buffer (20 mM Tris-HCl, pH 7.5, 0.1% sodium lauryl sulphate, 0.5% sodium deoxycholate, 135 mM NaCl, 1% Triton X-100, 10% glycerol, 2 mM EDTA), supplemented with a protease inhibitor cocktail (Roche Molecular Biochemicals, Indianapolis, Ind.) and phosphatase inhibitors sodium fluoride (NaF; 20 mM) and sodium vanadate (Na3VO4; 0.27 mM). The total protein concentration was determined using the protein assay dye reagent from Bio-Rad Laboratories (Hercules, Calif.) and bovine serum albumin (BSA) as a standard. Cell lysates in Laemmli sample buffer (Bio-Rad Laboratories, Hercules, Calif.) containing 5% (v/v) β-mercaptoethanol were boiled for 5 minutes, and equal amounts of total protein were analyzed by 10% sodium dodecyl sulphate-polyacrylamide gel electrophoresis (SDS-PAGE) and Western blotting using PVDF membranes. p53 was detected in Western blotting with mouse monoclonal anti-p53 (sc-126) (diluted 1:250) from Santa Cruz Biotechnology (Santa Cruz, Calif.). Actin was also detected as a loading control using mouse monoclonal anti-β-actin (A5316) (diluted 1:1000) from Sigma Chemical Co. (St. Louis, Mo.). Alternatively, lysates were blotted with rabbit monoclonal anti-caspase-3 (#9665) (diluted 1:1000) or rabbit polyclonal anti-Akt (#9272) (diluted 1:1000), both from Cell Signalling Technology, Inc. (Beverly, Mass.) to test for levels of procaspase-3 and Akt/PKB. Secondary anti-mouse (diluted 1:5000) and anti-rabbit (diluted 1:5000) antibodies coupled to horseradish peroxidase (HRP) were from Amersham Biosciences (Piscataway, N.J.). Proteins were detected using the ECL Plus reagents (Amersham Biosciences, Piscataway, N.J.) and Kodak BioMax XAR film (Fisher Scientific, Pittsburgh, Pa.). The results are representative of three (p53, procaspase-3) or four (Akt/PKB) independent experiments.
As inhibition of the proteasome is expected to result in increased levels of ubiquitinated proteins (Meng, et al. 1999. Proc. Natl. Acad. Sci. U.S.A. 96:10403-10408, which is incorporated herein by reference in its entirety), the effect of syringolin A on total ubiquitinated protein accumulation was analyzed by immunoblot analysis. To do so, SK-N-SH cells were seeded in 6-well cell culture plates at a concentration of 3.8×10^5 cells per ml (1.98 ml per well). […]

[1] = target: T1, human erythrocyte 20S proteasomes, chymotrypsin-like activity (Homo sapiens, UniProt P28074); assay type: biochemical; settings: for inhibition of chymotrypsin-like activity: 37° C., 100 μM Suc-LLVY-AMC
T1 construct: which contains human erythrocyte 20S proteasomes; purchased BIOMOL International AK-740; host or cells: human erythrocytes
Method: A 100 μl reaction volume contained 2 μg/ml 20S proteasome, 100 μM substrate, and the desired concentrations of syringolin A in dilution buffer (50 mM Tris-HCl, pH 7.5, 25 mM KCl, 10 mM NaCl, 1 mM MgCl2). Epoximicin and MG132 (BIOMOL® International) were used as test inhibitors. The release of free AMC (7-amino-4-methylcoumarin) at 37° C. was monitored with an MWGt Sirius HT fluorescence microplate reader (BIO-TEK® Instruments) equipped with a 360 nm excitation and a 460 nm emission filter. Proteolytic activities were measured as the increase in relative fluorescence units (RFU) over time (FIG. 7A-C). […] The initial velocities (vi) were determined from the time derivative of these curves and plotted versus the corresponding inhibitor concentration ([I]). […] Using SigmaPlot, the data were fitted to the hyperbolic equation vi=c+[v0/(Ki′+[I])], where v0 is the velocity of the control. […] The rate of covalent inhibition (kassociation), which equals kobs/[I] was calculated over the range of inhibitor concentrations given in parentheses in FIG. 7D. Values in FIG. 7D represent means±standard deviation.
The fluorogenic substrates Suc-LLVY-AMC, Boc-LRR-AMC, and Z-LLE-AMC (BIOMOL® International) were used to monitor chymotrypsin-like, trypsin-like, and caspase-like activities, respectively. […] The release of free AMC (7-amino-4-methylcoumarin) at 37° C. was monitored with an MWGt Sirius HT fluorescence microplate reader (BIO-TEK® Instruments) equipped with a 360 nm excitation and a 460 nm emission filter.

SMILES	cytotoxicity (SKOV3 cells)	total protein levels of p53 (p53; GlbA treatment)	GlbA-induced p53 levels in presence of 3-MA (p53; GlbA with 3-MA)	inhibition of chymotrypsin-like activity [1]	p53 levels (p53; 20 μM, 24 hours after treatment)	protein levels of tumor suppressor protein p53 (p53; 25 μM, time-course up to 24 hours)	mode of proteasome inhibition (reaction velocity over time) ([1]; FIG. 7A)
CCCCCCC/C=C/C=C/C(=O)N[C@H](C(=O)N[C@H]1C[C@@H](O)CCNC(=O)/C=C/[C@H](C)NC1=O)[C@@H](C)O [glidobactin A]	relatively low levels of cytotoxicity	strong accumulation of p53	partially reduced	blocked the chymotrypsin-like activity irreversibly at low concentrations			
CC(C)[C@H](NC(=O)N[C@H](C(=O)N[C@H]1/C=C/CCNC(=O)/C=C/[C@H](C(C)C)NC1=O)C(C)C)C(=O)O [syringolin A]	relatively low levels of cytotoxicity			inhibited	rapidly increased	time-dependent increase	irreversible proteasome inhibitor
